Experiments:
signalgrass = assay: Test E preemergence; assay type: in vivo, Brachiaria platyphylla; settings: 21 days, scale 0 to 100
Source text: (§1) Seeds of plant species selected from bermudagrass (Cynodon dactylon), Surinam grass (Brachiaria decumbens), crabgrass, large (large crabgrass, Digitaria sanguinalis), crabgrass, naked (naked crabgrass, Digitaria nuda), foxtail, green (green foxtail, Setaria viridis), johnsongrass (Sorghum halepense), kochia (Kochia scoparia), morningglory (pitted morningglory, Ipomoea lacunosa), nutsedge, purple (purple nutsedge, Cyperus rotundus), ragweed (common ragweed, Ambrosia elation), mustard, black (black mustard, Brassica nigra), guineagrass (Panicum maximum), dallisgrass (Paspalum dilatatum), barnyardgrass (Echinochloa crus-galli), sandbur (southern sandbur, Cenchrus echinatus), sowthistle (common sowthistle, Sonchus oleraceous), ryegrass, Italian (Italian ryegrass, Lolium multiflorum), signalgrass (broadleaf signalgrass, Brachiaria platyphylla), dayflower, VA (Virginia (VA) dayflower, Commelina virginica), bluegrass (annual bluegrass, Poa annua), quackgrass (Elytrigia repens), mallow (common mallow, Malva sylvestris), buckwheat, wild (wild buckwheat, Polygonum convolvulus), leafy spurge (Euphorbia esula), common chickweed (Stellaria media), wild poinsettia (Euphorbia heterophylla), pigweed, palmer (palmer pigweed, Amaranthus palmeri), and pigweed (redroot pigweed, Amaranthus retroflexus) were planted into a blend of loam soil and sand and treated preemergence with test chemicals formulated in a non-phytotoxic solvent mixture which included a surfactant.
(§2) Treated plants and controls were maintained in a greenhouse for 21 days, after which time all species were compared to controls and visually evaluated. Plant response ratings, summarized in Table E, are based on a scale of 0 to 100 where 0 is no effect and 100 is complete control. A dash (-) response means no test result.

crabgrass, Brazil = assay: Test F postemergence; assay type: in vivo, Digitaria horizontalis; settings: scale 0 to 100
Source text: (§3) Seeds of plant species selected from corn (Zea mays), soybean (Glycine max), velvetleaf (Abutilon theophrasti), lambsquarters (Chenopodium album), wild poinsettia (Euphorbia heterophylla), pigweed, palmer (palmer pigweed, Amaranthus palmeri), common waterhemp (Amaranthus rudis), surinam grass (Brachiaria decumbens), large crabgrass (Digitaria sanguinalis), crabgrass, Brazil (Brazilian crabgrass, Digitaria horizontalis), fall panicum (Panicum dichotomiflorum), giant foxtail (Setaria faberii), green foxtail (Setaria viridis), goosegrass (Eleusine indica), johnsongrass (Sorghum halepense), common ragweed (Ambrosia elation), barnyardgrass (Echinochloa crus-galli), southern sandbur (Cenchrus echinatus), arrowleaf sida (Sida rhombifolia), Italian ryegrass (Lolium multiflorum), dayflower, VA (Virginia (VA) dayflower, Commelina virginica), field bindweed (Convolvulus arvensis), cocklebur (common cocklebur, Xanthium strumarium), morningglory (Ipomoea coccinea), nightshade (eastern black nightshade, Solanum ptycanthum), kochia (Kochia scoparia), yellow nutsedge (Cyperus esculentus), and hairy beggarticks (Bidens pilosa), were planted into a silt loam soil and treated preemergence with test chemicals formulated in a non-phytotoxic solvent mixture which included a surfactant.
(§4) At the same time, plants from these crop and weed species and also horseweed (Canada horseweed, Conyza canadensis), smartweed (ladysthumb smartweed, Polygonum persicaria), waterhemp_RES1, (ALS & Triazine resistant common waterhemp, Amaranthus rudis), and waterhemp_RES2, (ALS & HPPD resistant common waterhemp, Amaranthus rudis) were treated with postemergence applications of test chemicals formulated in the same manner. Plants ranged in height from 2 to 18 cm for postemergence treatments (1- to 4-leaf stage). Treated plants and controls were maintained in a greenhouse for 14 to 21 days, after which time all species were compared to controls and visually evaluated. Plant response ratings, summarized in Table F, are based on a scale of 0 to 100 where 0 is no effect and 100 is complete control. A dash (-) response means no test result.

bermudagrass = assay: Test E preemergence; assay type: in vivo, Cynodon dactylon; settings: 21 days, scale 0 to 100
Source text: as §1, §2

kochia = assay: Test F postemergence; assay type: in vivo, Kochia scoparia; settings: scale 0 to 100
Source text: as §3, §4

bluegrass = assay: Test E preemergence; assay type: in vivo, Poa annua; settings: 21 days, scale 0 to 100
Source text: as §1, §2

ryegrass, Italian = assay: Test D preemergence; assay type: in vivo, Lolium multiflorum; settings: scale 0 to 100
Source text: Seeds of plant species selected from bluegrass (annual bluegrass, Poa annua), blackgrass (Alopecurus myosuroides), canarygrass (littleseed canarygrass, Phalaris minor), chickweed (common chickweed, Stellaria media), galium (catchweed bedstraw, Galium aparine), bromegrass, downy (downy bromegrass, Bromus tectorum), field poppy (Papaver rhoeas), field violet (Viola arvensis), foxtail, green (green foxtail, Setaria viridis), deadnettle (henbit deadnettle, Lamium amplexicaule), ryegrass, Italian (Italian ryegrass, Lolium multiflorum), kochia (Kochia scoparia), lambsquarters (Chenopodium album), oilseed rape (Brassica napus), pigweed (redroot pigweed, Amaranthus retroflexus), chamomile (scentless chamomile, Matricaria inodora), speedwell (bird's-eye speedwell, Veronica persica), barley, spring (spring barley, Hordeum vulgare), wheat, spring (spring wheat, Triticum aestivum), buckwheat, wild (wild buckwheat, Polygonum convolvulus), mustard, wild (wild mustard, Sinapis arvensis), oat, wild (wild oat, Avena fatua), radish, wild (wild radish, Raphanus raphanistrum), windgrass (Apera spica-venti), Russian thistle (Salsola kali), barley, winter (winter barley, Hordeum vulgare), and wheat, winter (winter wheat, Triticum aestivum) were planted into a silt loam soil and treated preemergence with test chemicals formulated in a non-phytotoxic solvent mixture which included a surfactant.
At the same time, these species were planted in pots containing Redi-Earth® planting medium (Scotts Company, 14111 Scottslawn Road, Marysville, Ohio 43041) comprising spaghnum peat moss, vermiculite, wetting agent and starter nutrients and treated with postemergence applications of the test chemicals formulated in the same manner. Plants ranged in height from 2 to 18 cm (1- to 4-leaf stage). Treated plants and controls were maintained in a controlled growth environment for 14 to 21 days after which time all species were compared to controls and visually evaluated. Plant response ratings, summarized in Table D, are based on a scale of 0 to 100 where 0 is no effect and 100 is complete control. A dash (-) response means no test result.

Compound | Plant response rating, Signalgrass (signalgrass; 16 g ai/ha) | Plant response rating, Signalgrass (signalgrass; 31 g ai/ha) | Plant response rating, Signalgrass (signalgrass; 62 g ai/ha) | Plant response rating, Signalgrass (signalgrass; 125 g ai/ha) | Plant response rating, Signalgrass (signalgrass; 250 g ai/ha) | Plant response rating, Crabgrass, Brazil (crabgrass, Brazil; Postemergence, 31 g ai/ha) | Plant response rating, Crabgrass, Brazil (crabgrass, Brazil; Postemergence, 125 g ai/ha) | Plant response rating, Crabgrass, Brazil (crabgrass, Brazil; Postemergence, 250 g ai/ha) | Plant response rating, Crabgrass, Brazil (crabgrass, Brazil; postemergence, 62 g ai/ha) | Plant response rating, Crabgrass, Brazil (crabgrass, Brazil; postemergence, 500 g ai/ha) | Plant response rating, Bermudagrass (bermudagrass; 16 g ai/ha) | Plant response rating, Bermudagrass (bermudagrass; 31 g ai/ha) | Plant response rating, Bermudagrass (bermudagrass; 62 g ai/ha) | Plant response rating, Bermudagrass (bermudagrass; 125 g ai/ha) | Plant response rating, Bermudagrass (bermudagrass; 250 g ai/ha) | Plant response rating, Kochia (kochia; Postemergence, 31 g ai/ha) | Plant response rating, Kochia (kochia; Postemergence, 125 g ai/ha) | Plant response rating, Bluegrass (bluegrass; 16 g ai/ha) | Plant response rating, Bluegrass (bluegrass; 31 g ai/ha) | Plant response rating, Bluegrass (bluegrass; 62 g ai/ha) | also measured
CCc1cc(C(=O)NCC(F)(F)F)nn1Cc1ccnc(C(F)(F)F)c1 [Compound 78, 5-ethyl-N-(2,2,2-trifluoroethyl)-1-[[(2-trifluoromethyl)-4-pyridinyl]methyl]-1H-pyrazole-3-carboxamide] | 70 | 100 | 100 | 100 | 100 | 40 | 70 | 90 | 40 | 95 | 70 | 85 | 100 | 100 | 100 | 65 | 90 | 40 | 75 | 90 | Plant response rating, Kochia (kochia; Postemergence, 250 g ai/ha): 90; Plant response rating, Kochia (kochia; postemergence, 62 g ai/ha): 90; Plant response rating, Kochia (kochia; postemergence, 500 g ai/ha): 95; Plant response rating, Bluegrass (bluegrass; 125 g ai/ha): 100; Plant response rating, Bluegrass (bluegrass; 250 g ai/ha): 100
CCc1cc(C(=O)NC(C)C)nn1Cc1ccnc(C(F)(F)F)c1 [Compound 103] | 65 | 80 | 100 | 100 | 100 |  |  |  |  |  | 80 | 98 | 100 | 98 | 100 |  |  | 40 | 90 | 95 | Plant response rating, Bluegrass (bluegrass; 125 g ai/ha): 98; Plant response rating, Bluegrass (bluegrass; 250 g ai/ha): 100
CCOc1cc(C(=O)NCC(F)(F)F)nn1Cc1ccnc(C(F)(F)F)c1 [Compound 104] | 35 | 75 | 100 | 100 | 100 | 40 | 60 | 90 | 50 | 95 | 90 | 95 | 98 | 100 | 100 | 75 | 90 | 85 | 100 | 100 | Plant response rating, Kochia (kochia; Postemergence, 250 g ai/ha): 95; Plant response rating, Kochia (kochia; postemergence, 62 g ai/ha): 80; Plant response rating, Kochia (kochia; postemergence, 500 g ai/ha): 95; Plant response rating, Bluegrass (bluegrass; 125 g ai/ha): 100; Plant response rating, Bluegrass (bluegrass; 250 g ai/ha): 100
CCCc1cc(C(=O)NCC(F)(F)F)nn1Cc1ccnc(C(F)(F)F)c1 [Compound 105] | 75 | 98 | 98 | 98 | 98 | 30 | 50 | 70 | 35 | 90 | 70 | 90 | 98 | 98 | 100 | 60 | 90 | 40 | 70 | 100 | Plant response rating, Kochia (kochia; Postemergence, 250 g ai/ha): 95; Plant response rating, Kochia (kochia; postemergence, 62 g ai/ha): 90; Plant response rating, Kochia (kochia; postemergence, 500 g ai/ha): 95; Plant response rating, Bluegrass (bluegrass; 125 g ai/ha): 100; Plant response rating, Bluegrass (bluegrass; 250 g ai/ha): 100
CCCc1cc(C(=O)NCC(F)(F)F)nn1Cc1cc(C(F)(F)F)nn1C [Compound 138] |  |  |  |  |  |  |  |  |  |  |  |  |  |  |  |  |  |  |  |  | Plant response rating, Ryegrass, Italian (ryegrass, Italian; 62 g ai/ha): 35; Plant response rating, Ryegrass, Italian (ryegrass, Italian; 125 g ai/ha): 70; Plant response rating, Ryegrass, Italian (ryegrass, Italian; 250 g ai/ha): 90
CCOc1cc(C(=O)NC(C)C)nn1Cc1ccnc(C(F)(F)F)c1 [Compound 188] |  |  |  |  |  | 20 | 75 | 90 | 30 | 95 |  |  |  |  |  | 40 | 95 |  |  |  | Plant response rating, Kochia (kochia; Postemergence, 250 g ai/ha): 90; Plant response rating, Kochia (kochia; postemergence, 62 g ai/ha): 60; Plant response rating, Kochia (kochia; postemergence, 500 g ai/ha): 95; Plant response rating, Ryegrass, Italian (ryegrass, Italian; 62 g ai/ha): 75; Plant response rating, Ryegrass, Italian (ryegrass, Italian; 125 g ai/ha): 85; Plant response rating, Ryegrass, Italian (ryegrass, Italian; 250 g ai/ha): 95
CCOc1cc(C(=O)NC2CC2)nn1Cc1ccnc(C(F)(F)F)c1 [Compound 189] | 60 | 95 | 100 |  |  |  |  |  |  |  | 65 | 85 | 98 |  |  |  |  | 50 | 50 | 80 | Plant response rating, Signalgrass (signalgrass; 4 g ai/ha): 0; Plant response rating, Signalgrass (signalgrass; 8 g ai/ha): 30; Plant response rating, Bermudagrass (bermudagrass; 4 g ai/ha): 0; Plant response rating, Bermudagrass (bermudagrass; 8 g ai/ha): 0; Plant response rating, Ryegrass, Italian (ryegrass, Italian; 62 g ai/ha): 40; Plant response rating, Ryegrass, Italian (ryegrass, Italian; 125 g ai/ha): 60; Plant response rating, Ryegrass, Italian (ryegrass, Italian; 250 g ai/ha): 95; Plant response rating, Bluegrass (bluegrass; 4 g ai/ha): 0; Plant response rating, Bluegrass (bluegrass; 8 g ai/ha): 0

Source: patent publication US20150105252A1, “SUBSTITUTED PYRAZOLES AS HERBICIDES” (E I DU PONT DE NEMOURS AND COMPANY, priority 2013, published 2015)
